Data as given in ChEMBL document CHEMBL5532657, “Serendipitous discovery of Class I HDAC inhibitors from rational design of molecular glue degraders targeting HDAC” (Eur J Med Chem, 2024).
Calls of active or inactive are those of the source. The calls are words filed in the database; no cut-off is given here.

How the values were obtained:
[1] = tested on: HCT-116; assay: Antiproliferative activity against human HCT-116 cells assessed as cell growth inhibition at 5 uM incubated for 48 hrs by CCK-8 assay; assay type: functional, cell-based
[2] = tested on: A549; assay: Antiproliferative activity against human A549 cells assessed as cell growth inhibition at 5 uM incubated for 48 hrs by CCK-8 assay; assay type: functional, cell-based
[3] = molecular target: T1, Protein deacetylase HDAC6 (Homo sapiens) (UniProt Q9UBN7); assay: Induction of HDAC6 degradation in human RS4-11 cells at 0.5 to 10 uM incubated for 12 hrs by Western blotting analysis; assay type: cell-based; conditions: dose 0.5-10 µM
T1 sequence (whole entry): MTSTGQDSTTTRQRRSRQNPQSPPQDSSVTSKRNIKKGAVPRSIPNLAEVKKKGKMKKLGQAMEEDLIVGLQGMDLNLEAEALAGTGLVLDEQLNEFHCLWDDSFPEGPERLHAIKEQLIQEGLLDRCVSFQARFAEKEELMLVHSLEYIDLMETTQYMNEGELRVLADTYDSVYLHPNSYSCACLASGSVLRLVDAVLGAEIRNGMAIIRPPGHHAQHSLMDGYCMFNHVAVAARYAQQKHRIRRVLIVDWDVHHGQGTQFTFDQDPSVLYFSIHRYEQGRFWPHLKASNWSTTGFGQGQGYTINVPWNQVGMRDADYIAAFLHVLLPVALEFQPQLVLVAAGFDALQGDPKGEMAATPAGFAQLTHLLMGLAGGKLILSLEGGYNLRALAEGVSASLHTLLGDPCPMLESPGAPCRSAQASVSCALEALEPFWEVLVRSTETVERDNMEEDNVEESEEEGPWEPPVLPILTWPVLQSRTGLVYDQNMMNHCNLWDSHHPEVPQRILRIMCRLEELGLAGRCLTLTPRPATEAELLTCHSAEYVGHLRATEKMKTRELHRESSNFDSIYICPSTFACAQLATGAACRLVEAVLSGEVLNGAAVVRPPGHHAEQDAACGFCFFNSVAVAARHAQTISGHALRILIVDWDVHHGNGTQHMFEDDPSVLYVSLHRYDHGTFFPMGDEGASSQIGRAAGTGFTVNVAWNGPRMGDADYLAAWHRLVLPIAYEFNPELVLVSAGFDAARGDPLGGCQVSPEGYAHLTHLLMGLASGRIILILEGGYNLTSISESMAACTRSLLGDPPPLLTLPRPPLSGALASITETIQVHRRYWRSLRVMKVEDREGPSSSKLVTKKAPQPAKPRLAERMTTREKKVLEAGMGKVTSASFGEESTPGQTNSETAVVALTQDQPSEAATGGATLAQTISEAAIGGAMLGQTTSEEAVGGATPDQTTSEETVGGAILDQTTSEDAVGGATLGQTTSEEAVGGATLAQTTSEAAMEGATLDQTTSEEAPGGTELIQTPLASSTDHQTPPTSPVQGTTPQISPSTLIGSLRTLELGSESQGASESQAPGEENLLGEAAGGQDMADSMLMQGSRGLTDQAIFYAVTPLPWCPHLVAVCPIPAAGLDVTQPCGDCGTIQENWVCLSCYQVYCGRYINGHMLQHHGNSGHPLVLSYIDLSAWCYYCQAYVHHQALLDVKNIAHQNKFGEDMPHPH

[4] = tested on: HeLa; assay: Antiproliferative activity against human HeLa cells assessed as cell growth inhibition at 5 uM incubated for 48 hrs by CCK-8 assay; assay type: functional, cell-based
[5] = molecular target: Histone deacetylase 1 (Homo sapiens, UniProt Q13547); assay: Induction of HDAC1 degradation in human RS4-11 cells at 0.5 to 10 uM incubated for 12 hrs by Western blotting analysis; assay type: cell-based; conditions: dose 0.5-10 µM
Histone deacetylase 1, sequence (Q13547 whole entry): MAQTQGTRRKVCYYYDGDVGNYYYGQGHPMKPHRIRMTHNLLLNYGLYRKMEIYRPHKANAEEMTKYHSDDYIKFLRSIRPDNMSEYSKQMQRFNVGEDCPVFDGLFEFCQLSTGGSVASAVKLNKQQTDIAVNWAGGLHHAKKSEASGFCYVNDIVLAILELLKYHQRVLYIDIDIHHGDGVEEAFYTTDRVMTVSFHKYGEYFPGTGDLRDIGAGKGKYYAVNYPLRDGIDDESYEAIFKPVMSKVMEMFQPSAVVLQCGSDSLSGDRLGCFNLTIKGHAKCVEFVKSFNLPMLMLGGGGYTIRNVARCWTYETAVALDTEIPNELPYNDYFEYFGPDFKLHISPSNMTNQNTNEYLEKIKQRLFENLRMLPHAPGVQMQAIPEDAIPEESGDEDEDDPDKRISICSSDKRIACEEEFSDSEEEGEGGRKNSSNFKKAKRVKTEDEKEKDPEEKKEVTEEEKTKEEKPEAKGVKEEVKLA

Row | SMILES | Activity [3] | Activity [5] | Activity [1] | Activity [2] | Activity [4]
1 | CCNNC(=O)CCCCCCNc1cccc2c1C(=O)N(C1CCC(=O)NC1=O)C2=O (stereo not given) | inactive | inactive | inactive | inactive | inactive
2 | O=C(CCCNc1cccc2c1C(=O)N(C1CCC(=O)NC1=O)C2=O)NO (stereo not given) | inactive | inactive | inactive | inactive | inactive
3 | O=C1CCC(N2C(=O)c3cccc(NCc4ccc(C(=O)NO)cc4)c3C2=O)C(=O)N1 (stereo not given) | inactive | inactive | inactive | inactive | inactive
4 | CCCNNC(=O)CCCCCCNc1cccc2c1C(=O)N(C1CCC(=O)NC1=O)C2=O (stereo not given) | inactive | inactive | inactive | inactive | inactive
5 | Nc1cccc2c1C(=O)N(C1CCC(=O)NC1=O)C2=O (stereo not given) | inactive | inactive | inactive | inactive | inactive
6 | O=C(CCCCNc1cccc2c1C(=O)N(C1CCC(=O)NC1=O)C2=O)NCCS (stereo not given) | inactive | inactive | inactive | inactive | inactive
7 | O=C(CCCCNc1cccc2c1C(=O)N(C1CCC(=O)NC1=O)C2=O)NO (stereo not given) | inactive | inactive | inactive | inactive | inactive
8 | O=C(CCCCCCCNc1cccc2c1C(=O)N(C1CCC(=O)NC1=O)C2=O)NCCS (stereo not given) | inactive | inactive | inactive | inactive | inactive
9 | O=C(CCCCCNc1cccc2c1C(=O)N(C1CCC(=O)NC1=O)C2=O)NO (stereo not given) | inactive | inactive | inactive | inactive | inactive
10 | O=C(CCCCCCCNc1cccc2c1C(=O)N(C1CCC(=O)NC1=O)C2=O)NO (stereo not given) | inactive | inactive | inactive | inactive | inactive
11 | O=C(CCCCCNc1cccc2c1C(=O)N(C1CCC(=O)NC1=O)C2=O)NCCS (stereo not given) | inactive | inactive | inactive | inactive | inactive
12 | O=C(CCCCCCNc1cccc2c1C(=O)N(C1CCC(=O)NC1=O)C2=O)NCCS (stereo not given) | inactive | inactive | inactive | inactive | inactive
13 | O=C(CCCNc1cccc2c1C(=O)N(C1CCC(=O)NC1=O)C2=O)NCCS (stereo not given) | inactive | inactive | inactive | inactive | inactive

Continued, in another order:

Row | Activity [3] | Activity [5] | SMILES | Activity [1] | Activity [2] | Activity [4]
14 | inactive | inactive | Nc1cc(F)ccc1NC(=O)c1cn(CCOCCOCCNc2cccc3c2C(=O)N(C2CCC(=O)NC2=O)C3=O)nn1 (stereo not given) | inactive | inactive | inactive
15 | inactive | inactive | Nc1ccccc1NC(=O)c1cn(CCOCCOCCNc2cccc3c2C(=O)N(C2CCC(=O)NC2=O)C3=O)nn1 (stereo not given) | inactive | inactive | inactive
16 | inactive | inactive | Nc1cc(F)ccc1NC(=O)c1cn(CCOCCNc2cccc3c2C(=O)N(C2CCC(=O)NC2=O)C3=O)nn1 (stereo not given) | inactive | inactive | inactive
17 | inactive | inactive | CCCNNC(=O)c1ccc(CNc2cccc3c2C(=O)N(C2CCC(=O)NC2=O)C3=O)cc1 (stereo not given) | inactive | inactive | inactive
18 | inactive | inactive | Nc1cc(F)ccc1NC(=O)CCCCCCNc1cccc2c1C(=O)N(C1CCC(=O)NC1=O)C2=O (stereo not given) | inactive | inactive | inactive
19 | inactive | inactive | Nc1cc(F)ccc1NC(=O)CCCNc1cccc2c1C(=O)N(C1CCC(=O)NC1=O)C2=O (stereo not given) | inactive | inactive | inactive
20 | inactive | inactive | O=C1CCC(N2C(=O)c3cccc(NCCOCCOCCn4cc(C(=O)NCCS)nn4)c3C2=O)C(=O)N1 (stereo not given) | inactive | inactive | inactive
21 | inactive | inactive | Nc1ccccc1NC(=O)CCCCCNc1cccc2c1C(=O)N(C1CCC(=O)NC1=O)C2=O (stereo not given) | inactive | inactive | inactive
22 | inactive | inactive | Nc1ccccc1NC(=O)c1cn(CCOCCOCCOCCNc2cccc3c2C(=O)N(C2CCC(=O)NC2=O)C3=O)nn1 (stereo not given) | inactive | inactive | inactive
23 | inactive | inactive | Nc1cc(F)ccc1NC(=O)c1cn(CCOCCOCCOCCNc2cccc3c2C(=O)N(C2CCC(=O)NC2=O)C3=O)nn1 (stereo not given) | inactive | inactive | inactive
24 | inactive | inactive | Nc1ccccc1NC(=O)CCCCNc1cccc2c1C(=O)N(C1CCC(=O)NC1=O)C2=O (stereo not given) | inactive | inactive | inactive
25 | inactive | inactive | Nc1ccccc1NC(=O)CCCNc1cccc2c1C(=O)N(C1CCC(=O)NC1=O)C2=O (stereo not given) | inactive | inactive | inactive
26 | inactive | inactive | Nc1ccccc1NC(=O)CCCCCCCNc1cccc2c1C(=O)N(C1CCC(=O)NC1=O)C2=O (stereo not given) | inactive | inactive | inactive
27 | inactive | inactive | O=C1CCC(N2C(=O)c3cccc(NCCOCCOCCOCCn4cc(C(=O)NCCS)nn4)c3C2=O)C(=O)N1 (stereo not given) | inactive | inactive | inactive
28 | inactive | inactive | Nc1ccccc1NC(=O)CCCCCCNc1cccc2c1C(=O)N(C1CCC(=O)NC1=O)C2=O (stereo not given) | inactive | inactive | inactive
29 | inactive | inactive | O=C1CCC(N2C(=O)c3cccc(NCCOCCn4cc(C(=O)NCCS)nn4)c3C2=O)C(=O)N1 (stereo not given) | inactive | inactive | inactive
